Laboratory results as given in patent US12653851B2, “Isolated recombinant oncolytic adenoviruses, pharmaceutical compositions, and uses thereof for drugs for treatment of tumors and/or cancers” (HANGZHOU CONVERD CO., LTD., priority 2017, dated 2026).
“Also recorded” adds a separate entry of the source.

Assays:
[1] = test system: hPDL1 mRNA (human PDL1 mRNA); test: inhibitory effect of shPDL1 on hPDL1 mRNA, Real-time PCR; assay type: cell-based; settings: U251 and H460 cells, 24 h and 48 h after transfection, compared to control shRNA
Method: U251 and H460 cells were seeded in 12-well plates at 2×10^5 cells per well, respectively, 12 hours in advance. U251 and H460 cells in each well were transfected with 1.6 μg shRNA expression vector DNA in a ratio to 4 μl lipofectamin 2000. Two cell samples were taken over 24 hours and 48 hours, respectively. After the total RNA was extracted and reverse transcription was performed, the expression level of human PDL1 mRNA in cells was detected by Real-time PCR with the mRNA level of GAPDH gene as a control.

[2] = test system: human PDL1 protein fused with 3×FLAG tag; test: inhibitory effect of shPDL1 on over-expressed hPDL1 protein in 293T cells, Western blot; assay type: cell-based; settings: 293T cells co-transfected 1:1 with pcDNA3.3-hPDL1-3×FLAG, 48 hours
Method: 293T cells were transiently transfected with plasmids pSGU6/GFP/Neo-shPDL1-NC, pSGU6/GFP/Neo-shPDL1-1, pSGU6/GFP/Neo-shPDL1-2 and pSGU6/GFP/Neo-shPDL1-3 with pcDNA3.3-hPDL1-3×FLAG at an equimolar ratio (1:1), respectively, wherein plasmid pcDNA3.3-hPDL1-3×FLAG expresses the human PDL1 protein fused with 3×FLAG tag. Cell samples were collected after 48 hours, and Western blot analysis was performed after cell lysis.

Substance	inhibitory effect on hPDL1 mRNA [1]	over-expressed hPDL1 protein [2]
shPDL1-#3: shRNA (coding sequence SEQ ID NO. 22) targeting region 589-611 of human PDL1 mRNA (DNA GAGAATCAACACAACAACTAATTCAAGAGATTAGTTGTTGTGTTGATTCTCTT)	inhibitory effect	–
shPDL1-#1 (GGGAAATGGAGGATAAGAACATTCAAGAGATGTTCTTATCCTCCATTTCCCTT; expressed or natural sequence)	inhibitory effect; also recorded: most significant inhibitory effect	significantly reduce
shPDL1-#2: shRNA (coding sequence SEQ ID NO. 19) targeting region 430-452 of human PDL1 mRNA (DNA GGATCCAGTCACCTCTGAACATTCAAGAGATGTTCAGAGGTGACTGGATCCTT)	inhibitory effect	–
